According to US11613522B2, “Herbicidally active 3-phenylisoxazoline-5-carboxamides of tetrahydro- and dihydrofurancarboxamides” (BAYER AKTIENGESELLSCHAFT, priority 2017, dated 2023):

test system: Alopecurus myosuroides; assay: Pre-emergence herbicidal activity against ALOMY; assay type: in vivo; settings: dosage 80 g/ha, scored visually after about 3 weeks vs untreated controls
Summary of the method: (§1)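 Pre-emergence pot test: seed → soil cover → spray of WP/EC formulation (aq., 0.5% additive, 600 l/ha) on soil surface → greenhouse ~3 wk → visual % activity vs untreated (100% = dead, 0% = as control).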

Structure (SMILES) | Pre-emergence herbicidal activity in % against ALOMY [%]
C=C[C@]1(C(=O)N[C@@H]2CO[C@H](C(=O)NCC(=O)OC)C2)CC(c2cc(F)cc(F)c2)=NO1 [Example I-21] | 100

test system: Avena fatua; assay: Pre-emergence herbicidal activity against AVEFA; assay type: in vivo; settings: dosage 80 g/ha, scored visually after about 3 weeks vs untreated controls
Summary of the method: as §1

Structure (SMILES) | Pre-emergence herbicidal activity in % against AVEVA (AVEFA) [%]
C=C[C@]1(C(=O)N[C@@H]2CO[C@H](C(=O)NCC(=O)OC)C2)CC(c2cc(F)cc(F)c2)=NO1 [Example I-21] | 100

test system: Echinochloa crus-galli; assay: Pre-emergence herbicidal activity against ECHCG; assay type: in vivo; settings: dosage 80 g/ha, scored visually after about 3 weeks vs untreated controls
Excerpt: (§2) 1. Pre-emergence herbicidal action against harmful plants and crop plant compatibility Seeds of monocotyledonous and dicotyledonous weed plants and crop plants are placed in plastic or wood fiber pots and covered with soil. The compounds of the invention, formulated in the form of wettable powders (WP) or as emulsion concentrates (EC), are then applied onto the surface of the covering soil as aqueous suspension or emulsion with addition of 0.5% additive at a water application rate of 600 l/ha (converted). After the treatment, the pots are placed in a greenhouse and kept under good growth conditions for the trial plants. After about 3 weeks, the effect of the preparations is scored visually in comparison with untreated controls as percentages. For example, 100% activity=the plants have died, 0% activity=like control plants. [table]

Structure (SMILES) | Pre-emergence herbicidal activity in % against ECHCG [%]
C=C[C@]1(C(=O)N[C@@H]2CO[C@H](C(=O)NCC(=O)OC)C2)CC(c2cc(F)cc(F)c2)=NO1 [Example I-21] | 100

test system: Lolium rigidum; assay: Pre-emergence herbicidal activity against LOLRI; assay type: in vivo; settings: dosage 80 g/ha, scored visually after about 3 weeks vs untreated controls
Excerpt: as §2

Structure (SMILES) | Pre-emergence herbicidal activity in % against LOLRI [%]
C=C[C@]1(C(=O)N[C@@H]2CO[C@H](C(=O)NCC(=O)OC)C2)CC(c2cc(F)cc(F)c2)=NO1 [Example I-21] | 100

test system: Setaria viridis; assay: Pre-emergence herbicidal activity against SETVI; assay type: in vivo; settings: dosage 80 g/ha, scored visually after about 3 weeks vs untreated controls
Excerpt: as §2

Structure (SMILES) | Pre-emergence herbicidal activity in % against SETVI [%]
C=C[C@]1(C(=O)N[C@@H]2CO[C@H](C(=O)NCC(=O)OC)C2)CC(c2cc(F)cc(F)c2)=NO1 [Example I-21] | 100

test system: Amaranthus retroflexus; assay: Pre-emergence herbicidal activity against AMARE; assay type: in vivo; settings: dosage 80 g/ha, scored visually after about 3 weeks vs untreated controls
Excerpt: as §2

Structure (SMILES) | Pre-emergence herbicidal activity in % against AMARE [%]
C=C[C@]1(C(=O)N[C@@H]2CO[C@H](C(=O)NCC(=O)OC)C2)CC(c2cc(F)cc(F)c2)=NO1 [Example I-21] | 100

test system: Pharbitis purpurea; assay: Pre-emergence herbicidal activity against PHBPU; assay type: in vivo; settings: dosage 80 g/ha, scored visually after about 3 weeks vs untreated controls
Excerpt: as §2

Structure (SMILES) | Pre-emergence herbicidal activity in % against PHBPU [%]
C=C[C@]1(C(=O)N[C@@H]2CO[C@H](C(=O)NCC(=O)OC)C2)CC(c2cc(F)cc(F)c2)=NO1 [Example I-21] | 90

test system: Polygonum convolvulus; assay: Pre-emergence herbicidal activity against POLCO; assay type: in vivo; settings: dosage 80 g/ha, scored visually after about 3 weeks vs untreated controls
Summary of the method: as §1

Structure (SMILES) | Pre-emergence herbicidal activity in % against POLCO [%]
C=C[C@]1(C(=O)N[C@@H]2CO[C@H](C(=O)NCC(=O)OC)C2)CC(c2cc(F)cc(F)c2)=NO1 [Example I-21] | 100

test system: Stellaria media; assay: Pre-emergence herbicidal activity against STEME; assay type: in vivo; settings: dosage 80 g/ha, scored visually after about 3 weeks vs untreated controls
Summary of the method: as §1

Structure (SMILES) | Pre-emergence herbicidal activity in % against STEME [%]
C=C[C@]1(C(=O)N[C@@H]2CO[C@H](C(=O)NCC(=O)OC)C2)CC(c2cc(F)cc(F)c2)=NO1 [Example I-21] | 90

test system: Viola tricolor; assay: Pre-emergence herbicidal activity against VIOTR; assay type: in vivo; settings: dosage 80 g/ha, scored visually after about 3 weeks vs untreated controls
Excerpt: as §2

Structure (SMILES) | Pre-emergence herbicidal activity in % against VIOTR [%]
C=C[C@]1(C(=O)N[C@@H]2CO[C@H](C(=O)NCC(=O)OC)C2)CC(c2cc(F)cc(F)c2)=NO1 [Example I-21] | 100

test system: Veronica persica; assay: Pre-emergence herbicidal activity against VERPE; assay type: in vivo; settings: dosage 80 g/ha
Summary of the method: as §1

Structure (SMILES) | Pre-emergence herbicidal activity in % against VERPE [%]
C=C[C@]1(C(=O)N[C@@H]2CO[C@H](C(=O)NCC(=O)OC)C2)CC(c2cc(F)cc(F)c2)=NO1 [Example I-21] | 90

test system: Hordeum murinum; assay: Pre-emergence herbicidal activity against HORMU; assay type: in vivo; settings: dosage 80 g/ha
Excerpt: as §2

Structure (SMILES) | Pre-emergence herbicidal activity in % against HORMU [%]
C=C[C@]1(C(=O)N[C@@H]2CO[C@H](C(=O)NCC(=O)OC)C2)CC(c2cc(F)cc(F)c2)=NO1 [Example I-21] | 90

test system: Alopecurus myosuroides; assay: Post-emergence herbicidal activity against ALOMY; assay type: in vivo; settings: dosage 320 g/ha, rated visually after about 3 weeks
Summary of the method: (§3)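 Weeds grown in sandy loam in greenhouse, treated at one-leaf stage (2–3 weeks after sowing) by spraying WP or EC formulations as aqueous suspension/emulsion with 0.5% additive at 600 l/ha. Activity rated visually about 3 weeks later versus untreated controls (100% = plants dead, 0% = like control).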

Structure (SMILES) | Post-emergence herbicidal activity in % against ALOMY [%]
C=C[C@]1(C(=O)N[C@@H]2CO[C@H](C(=O)NCC(=O)OC)C2)CC(c2cc(F)cc(F)c2)=NO1 [Example I-21] | 90

test system: Avena fatua; assay: Post-emergence herbicidal activity against AVEFA; assay type: in vivo; settings: dosage 320 g/ha, rated visually after about 3 weeks
Summary of the method: as §3

Structure (SMILES) | Post-emergence herbicidal activity in % against AVEFA [%]
C=C[C@]1(C(=O)N[C@@H]2CO[C@H](C(=O)NCC(=O)OC)C2)CC(c2cc(F)cc(F)c2)=NO1 [Example I-21] | 100

test system: Echinochloa crus-galli; assay: Post-emergence herbicidal activity against ECHCG; assay type: in vivo; settings: dosage 320 g/ha, rated visually after about 3 weeks
Summary of the method: as §3

Structure (SMILES) | Post-emergence herbicidal activity in % against ECHCG [%]
C=C[C@]1(C(=O)N[C@@H]2CO[C@H](C(=O)NCC(=O)OC)C2)CC(c2cc(F)cc(F)c2)=NO1 [Example I-21] | 90

test system: Lolium rigidum; assay: Post-emergence herbicidal activity against LOLRI; assay type: in vivo; settings: dosage 320 g/ha, rated visually after about 3 weeks
Summary of the method: as §3

Structure (SMILES) | Post-emergence herbicidal activity in % against LOLRI [%]
C=C[C@]1(C(=O)N[C@@H]2CO[C@H](C(=O)NCC(=O)OC)C2)CC(c2cc(F)cc(F)c2)=NO1 [Example I-21] | 90

test system: Setaria viridis; assay: Post-emergence herbicidal activity against SETVI; assay type: in vivo; settings: dosage 320 g/ha, rated visually after about 3 weeks
Summary of the method: as §3

Structure (SMILES) | Post-emergence herbicidal activity in % against SETVI [%]
C=C[C@]1(C(=O)N[C@@H]2CO[C@H](C(=O)NCC(=O)OC)C2)CC(c2cc(F)cc(F)c2)=NO1 [Example I-21] | 90

test system: Abutilon theophrasti; assay: Post-emergence herbicidal activity against ABUTH; assay type: in vivo; settings: dosage 320 g/ha, rated visually after about 3 weeks
Summary of the method: as §3

Structure (SMILES) | Post-emergence herbicidal activity in % against ABUTH [%]
C=C[C@]1(C(=O)N[C@@H]2CO[C@H](C(=O)NCC(=O)OC)C2)CC(c2cc(F)cc(F)c2)=NO1 [Example I-21] | 90

test system: Amaranthus retroflexus; assay: Post-emergence herbicidal activity against AMARE; assay type: in vivo; settings: dosage 320 g/ha, rated visually after about 3 weeks
Summary of the method: as §3

Structure (SMILES) | Post-emergence herbicidal activity in % against AMARE [%]
C=C[C@]1(C(=O)N[C@@H]2CO[C@H](C(=O)NCC(=O)OC)C2)CC(c2cc(F)cc(F)c2)=NO1 [Example I-21] | 90

test system: Pharbitis purpurea; assay: Post-emergence herbicidal activity against PHBPU; assay type: in vivo; settings: dosage 320 g/ha, rated visually after about 3 weeks
Summary of the method: as §3

Structure (SMILES) | Post-emergence herbicidal activity in % against PHBPU [%]
C=C[C@]1(C(=O)N[C@@H]2CO[C@H](C(=O)NCC(=O)OC)C2)CC(c2cc(F)cc(F)c2)=NO1 [Example I-21] | 90

test system: Polygonum convolvulus; assay: Post-emergence herbicidal activity against POLCO; assay type: in vivo; settings: dosage 320 g/ha, rated visually after about 3 weeks
Summary of the method: as §3

Structure (SMILES) | Post-emergence herbicidal activity in % against POLCO [%]
C=C[C@]1(C(=O)N[C@@H]2CO[C@H](C(=O)NCC(=O)OC)C2)CC(c2cc(F)cc(F)c2)=NO1 [Example I-21] | 90

test system: Stellaria media; assay: Post-emergence herbicidal activity against STEME; assay type: in vivo; settings: dosage 320 g/ha, rated visually after about 3 weeks
Summary of the method: as §3

Structure (SMILES) | Post-emergence herbicidal activity in % against STEME [%]
C=C[C@]1(C(=O)N[C@@H]2CO[C@H](C(=O)NCC(=O)OC)C2)CC(c2cc(F)cc(F)c2)=NO1 [Example I-21] | 90

test system: Viola tricolor; assay: Post-emergence herbicidal activity against VIOTR; assay type: in vivo; settings: dosage 320 g/ha, rated visually after about 3 weeks
Summary of the method: as §3

Structure (SMILES) | Post-emergence herbicidal activity in % against VIOTR [%]
C=C[C@]1(C(=O)N[C@@H]2CO[C@H](C(=O)NCC(=O)OC)C2)CC(c2cc(F)cc(F)c2)=NO1 [Example I-21] | 90

test system: Veronica persica; assay: Post-emergence herbicidal activity against VERPE; assay type: in vivo; settings: dosage 320 g/ha, rated visually after about 3 weeks
Summary of the method: as §3

Structure (SMILES) | Post-emergence herbicidal activity in % against VERPE [%]
C=C[C@]1(C(=O)N[C@@H]2CO[C@H](C(=O)NCC(=O)OC)C2)CC(c2cc(F)cc(F)c2)=NO1 [Example I-21] | 80

test system: Hordeum murinum; assay: Post-emergence herbicidal activity against HORMU; assay type: in vivo; settings: dosage 320 g/ha, rated visually after about 3 weeks
Summary of the method: as §3

Structure (SMILES) | Post-emergence herbicidal activity in % against HORMU [%]
C=C[C@]1(C(=O)N[C@@H]2CO[C@H](C(=O)NCC(=O)OC)C2)CC(c2cc(F)cc(F)c2)=NO1 [Example I-21] | 100
